From publication PMC5534107, “Sensitization of ASIC3 by proteinase-activated receptor 2 signaling contributes to acidosis-induced nociception” (Journal of Neuroinflammation, 2017)

How the values were obtained:
[1] = tested on: heteromeric ASIC1a+3 channels expressed with PAR2 in CHO cells; assay: Whole-cell patch clamp, heteromeric ASIC1a+3 channels expressed with PAR2 in CHO cells; format: cell-based, Chinese hamster; conditions: PAR2-AP 10^−5 M for 1 min; I pH 6.6; ASIC3:other subunit 1:3; n = 8
Description: (§1) ASIC3, ASIC1a, ASIC1b, ASIC2b, and PAR2 complementary DNAs (cDNAs) were used for heterologous expression in CHO cells as described previously (Wang et al., 2013). In brief, CHO cells were cultured at 37 °C in a humidified atmosphere of 5% CO2 and […] and passaged twice a week. Transient transfection of CHO cells was performed using HilyMax liposome transfection reagent (Dojindo Laboratories). CHO cells were maintained in F-12 Nutrient Mixture (added 1.176 g of NaHCO3/L medium) supplemented with 10% fetal bovine serum and 1% gluta-MAXTM-1 (100×; Invitrogen). When ASIC3 and PAR2 cDNAs were co-transfected, the ratio was kept at 1:1. All plasmids used contained, in addition to the desired ASIC3 cDNA, the coding sequence for enhanced green fluorescent protein to aid identification of transfected cells. Electrophysiological measurements were performed 24–48 h after transfection.
(§2) Whole-cell patch clamp and voltage clamp recordings were carried out at room temperature (22–25 °C) using a MultiClamp-700B amplifier and Digidata-1440A A/D converter (Axon Instruments, CA, USA). […]
(§3) Drugs purchased from Sigma and used in the experiments include hydrochloric acid, 2-furoyl-LIGRLO-NH2 (a PAR2-activating peptide (PAR2-AP)), trypsin, FSLLRY-NH2, APETx2, and capsazepine. […] The application pipette tips were positioned ∼30 μm away from the recorded neurons. […]

[2] = tested on: heteromeric ASIC2b+3 channels expressed with PAR2 in CHO cells; assay: Whole-cell patch clamp, heteromeric ASIC2b+3 channels expressed with PAR2 in CHO cells; format: cell-based, Chinese hamster; conditions: PAR2-AP 10^−5 M for 1 min; I pH 6.6; ASIC3:other subunit 1:3; n = 8
Description: as §1, §2, §3

[3] = tested on: heteromeric ASIC1b+3 channels expressed with PAR2 in CHO cells; assay: Whole-cell patch clamp, heteromeric ASIC1b+3 channels expressed with PAR2 in CHO cells; format: cell-based, Chinese hamster; conditions: PAR2-AP 10^−5 M for 1 min; I pH 6.6; ASIC3:other subunit 1:3; n = 8
Description: as §1, §2, §3

[4] = tested on: rats; assay: Nociceptive behavior (flinches) induced by intraplantar acetic acid in rats; format: in vivo, rat; conditions: capsazepine 100 μM, n = 10
Description: Rats were placed in a 30 × 30 × 30 cm Plexiglas chamber and allowed to habituate for at least 30 min before nociceptive behavior experiments. A blind experiment was carried out. Separate groups of rats were coded and pretreated with 20 μl capsazepine (100 μM) together with vehicle and different dosages of PAR2-AP, FSLLRY-NH2, or APETx2 in the ipsilateral hind paw before injection of acetic acid. […] And nociceptive behavior (that is, number of flinches) was counted over a 5-min period starting immediately after the injection.
We finally ascertain whether PAR2-AP facilitates pain-related behaviors through interacting with ASIC3 in vivo. Acetic acid (0.6%) was injected into the right hind paws of rats and measured the number of flinches that the animals spent licking and/or lifting the injected paw. Intraplantar injection of acetic acid elicits an intense flinch/shaking response which mainly occurred during 0–5 min after injection of acetic acid. […] However, the low dose (1 μg) of PAR2-AP had no effect on the acidosis-induced nocifensive behaviors (Bonferroni’s post hoc test, P > 0.1, n = 10). In addition, the exacerbating effect of 10 μg PAR2-AP on acidosis-induced nocifensive behaviors was blocked by co-administration of 20 μg FSLLRY-NH2, a selective PAR2 antagonist (Bonferroni’s post hoc test, P < 0.01, compared with 10 μg PAR2-AP alone, n = 10; Fig. 6a).

## 2-furoyl-LIGRLO-NH2 [PAR2-AP]
[1]
  increase of peak current of heteromeric ASIC1a+3 channels: 51.6 ± 6.5%
[2]
  increase of peak current of heteromeric ASIC2b+3 channels: 68.1 ± 7.3%
[3]
  increase of peak current of heteromeric ASIC1b+3 channels: 55.2 ± 5.9%
[4]; PAR2-AP 1 μg intraplantar, 5 min before acetic acid 0.6%, 20 μl, flinches over 5 min, P > 0.1
  effect on acidosis-induced nocifensive behaviors (number of flinches), low dose: no effect
[4]; PAR2-AP 3 μg intraplantar, P < 0.05
  acetic acid-induced number of flinches vs acetic acid alone, medium dose: significantly greater
[4]; PAR2-AP 10 μg intraplantar, P < 0.01
  acetic acid-induced number of flinches vs acetic acid alone, high dose: significantly greater
